This series can be described thus: Snapshot (5 h) PK study with/without EA and 1-ABT. The following applies: male, CD-1, mouse, plasma, ip, 10 mg/kg, CD-1 mice, 10 mg/kg i.p. The series is classed as in vivo. As to the method: In the 5 h PK study investigating the effect of co-dosing EA and 1-ABT, two cohorts of male CD-1 mice (6–8 weeks old, 20–30 g) were dosed via intraperitoneal (i.p.) administration of compound 2 (10 mg/kg) as a 10 mL/kg volume of a 1.0 mg/mL solution in DMSO/PEG-400/saline (v/v/v, 10:30:60). EA (30 mg/kg) was administered i.p. as a 1.0 mL/kg volume of a 30 mg/mL solution in NMP/PEG-400/water (v/v/v, 10:60:30) as a 6 h pretreatment and again at the time of dosing with compound 2. 1-ABT (100 mg/kg) was administered p.o. as a 10 mL/kg volume of a 10 mg/mL solution in saline as a 2 h pretreatment. No co-treatment with EA or 1-ABT was applied to the first cohort. Co-treatment with EA (30 mg/kg) and 1-ABT (100 mg/kg) was applied in the second cohort. Two mice were dosed in each cohort. The mice had free access to water and food. Blood (0.03 mL) was collected from the dorsal metatarsal vein at 0.5, 1, 3, and 5 h time points. Each blood sample was transferred into a plastic microcentrifuge tube containing EDTA-K2 anticoagulant. Blood samples were centrifuged at 4000× g for 5 min at 4 °C to obtain plasma. The samples were stored in a freezer at −75 ± 15 °C prior to analysis. Plasma samples from the two mice from each cohort and each time point were pooled together for analysis. At 5 h post dose administration, the mice were anesthetized using increasing concentrations of CO2, and lung samples were collected. Lung samples were quickly frozen in an ice box and stored at −75 ± 15 °C. Prior to analysis, all lung samples were weighed and homogenized with phosphate-buffered saline (PBS) in a lung weight (g)/buffer volume (mL) ratio of 1:3. The final compound concentration was calculated by multiplying the detected concentration by a dilution factor of four.
Concentrations of the test compound in the plasma samples were determined using a Prominence LC-MS/MS system with a DGU-20A5R(C) degasser, LC-30AD pump, CBM-20A system controller, SIL-20AC HT autosampler; Rack changer II, HALO 90A ES-CN (2.7 μm, 2.1 × 50 mm) column, and AB Sciex Triple Quan 5500 LC/MS/MS instrument. The mobile phase was 5–95% MeCN in H2O, with 0.1% formic acid. The desired serial concentrations of working solutions were achieved by diluting the stock solution of the analyte with 50% acetonitrile in water. A series of 10 µL working solutions […] were added to 10 μL of blank plasma or lung homogenate to achieve calibration standards of 0.5, 1, 2, 5, 10, 50, 100, 500, 1000 ng/mL in a total volume of 20 μL. A total of 5 quality control samples at 1 ng/mL, 2 ng/mL, 5 ng/mL, 100 ng/mL, and 800 ng/mL were prepared independently of those used for the calibration curves in the same manner. A 20 μL standard, 20 μL QC sample, and 20 μL of an unknown sample (10 µL plasma or lung homogenate with 10 µL blank solution) were added to 200 μL of acetonitrile containing internal standard mixture for precipitating protein. Then, the samples were vortexed for 30 s. After centrifugation at 4 °C and 4000 rpm for 15 min, the supernatant was diluted with ultrapure water at a ratio of 1:2 (v/v, 1:2), then 20 µL of diluted supernatant was injected into the LC/MS/MS system for quantitative analysis. PK parameters were calculated from the mean plasma concentration versus time using a noncompartmental model in WinNonlin Phoenix version 8.3.

[1] abbreviates: with both EA (30 mg/kg) and 1-ABT (100 mg/kg).

The structures appear in SMILES notation.

For orientation: AUC(0-t) means exposure summed from dosing to a finite time, without extrapolation to infinity. The term Cmax denotes the maximum level reached in the sampled fluid or tissue. Broadly, the half-life is the time needed for the level to fall by half in the phase considered. As for `CCC(=O)Nc1cc(Nc2cc(NC3CC3)n3ncc(C#N)c3n2)c(F)cc1N1CCC[C@H](NC)C1` [Compound 2, (S)-N-(5-((3-cyano-7-(cyclopropylamino)pyrazolo[1,5-a]pyrimidin-5-yl)amino)-4-fluoro-2-(3-(methylamino)piperidin-1-yl)phenyl)propionamide], under “no co-treatment”, the AUC(0-t) amounted to 7.77 µM·h, the peak concentration (Cmax) came to 3.19 µM and the half-life was 2.5 h. Moreover, under setting [1], the AUC(0-t) was determined as 10.1 µM·h, the maximum concentration (Cmax) came to 3.15 µM and the half-life is 3.7 h.
